Each structure is given as a SMILES string.

For orientation: IC50 means the concentration that gives 50% inhibition.

One test deals with human platelet rich plasma. As to the kind of experiment: Inhibition of human platelet aggregation, 96-well assay (ADP-induced, platelet rich plasma). The format is cell-based. Particulars: 20 min, 96-well plate, human PRP, aggregation induced by ADP, AUC of absorbance over 20 minutes, 37° C. Here is the method:
Alternatively to a binding assay which measures a compound's ability to bind to the P2Y12 receptor, the effect on cellular function was also determined. This ability of the compound was evaluated in two platelet aggregation assays: in 96-well plates and with the “Born”-method using single cuvettes.
Whole blood was collected from healthy volunteers using 20 ml syringes containing 2 ml of ACD-A Aqua-Citrat-Dextrose-A, Fresenius). The anticoagulated whole blood was transferred into 15 ml polypropylene conical tubes (10 ml per tube). The tubes were centrifuged for 15 minutes at 150×g at RT without using the centrifuge brake. This procedure leads to a pellet of cellular components and a supernatant of platelet rich plasma (PRP). The PRP layer was collected from each tube and pooled for each donor. To avoid carry over of cellular components following centrifugation, approximately 5 ml of PRP was left in the tube. The platelet concentration was determined using a Coulter Counter.
The 15 ml tubes containing the pellet of cellular components were centrifuged again for 10 minutes at 1940×g. This pelleted out most particulate blood constituents remaining, leaving a layer of Platelet Poor Plasma (PPP). The PPP was collected for each donor. The PRP layer, previously set aside, was diluted with PPP to a final concentration of approximately 3×E8 platelets/ml with the PPP.
The human platelet aggregation assay is performed in 96-well plates using a microtiter plate reader (SpectraMax Plus 384 with SoftMax Pro software from Molecular Devices).
In the plate 15 μl of test compound at 10× final concentration in NaCl is mixed with 120 μl fresh PRP and incubated for 5 minutes. Following that incubation period, 15 μl of 40 μM ADP is added to the reaction mix. This addition of ADP is sufficient to induce aggregation in the absence of an inhibitor. The plates are then transferred to the microplate reader and aggregation is measured over 20 minutes. The instrument settings include: Absorbance at 650 nm, run time 20 minutes with readings in 1-minute intervals and 50 seconds shaking between readings all performed at 37° C. Results of the assay are expressed as % inhibition, and are calculated using area under curve (AUC) of the absorbance over 20 minutes.
`CCOC(=O)N1CCN(C(=O)[C@H](CCC(=O)O)NC(=O)c2cc(OCC(=O)N3CCC(O)CC3)c3ccc(C)cc3n2)CC1` [Example 10, 4-[(S)-4-Carboxy-2-({4-[2-(4-hydroxy-piperidin-1-yl)-2-oxo-ethoxy]-7-methyl-quinoline-2-carbonyl}-amino)-butyryl]-piperazine-1-carboxylic acid ethyl ester] gave an IC50 of 0.18 µM.
Same read-out and setting: under `CCNC(=O)[C@@H]1CCCN1C(=O)COc1cc(C(=O)N[C@@H](CCC(=O)O)C(=O)N2CCN(C(=O)OCC)CC2)nc2cccc(F)c12` [Example 179, 4-[(S)-4-Carboxy-2-({4-[2-((S)-2-ethylcarbamoyl-pyrrolidin-1-yl)-2-oxo-ethoxy]-5-fluoro-quinoline-2-carbonyl}-amino)-butyryl]-piperazine-1-carboxylic acid ethyl ester] stands 0.03 µM; under `CCOC(=O)N1CCN(C(=O)[C@H](CCC(=O)O)NC(=O)c2cc(OCC(=O)N3CCC[C@H]3C(=O)NCC3CCC3)c3ccc(C)cc3n2)CC1` [Example 308, 4-{(S)-4-Carboxy-2-[(4-{2-[(S)-2-(cyclobutylmethyl-carbamoyl)-pyrrolidin-1-yl]-2-oxo-ethoxy}-7-methyl-quinoline-2-carbonyl)-amino]-butyryl}-piperazine-1-carboxylic acid ethyl ester], 0.06 µM.
Take `CCCCOC(=O)N1CCN(C(=O)[C@H](CCC(=O)O)NC(=O)c2cc(OCC(=O)N3CCC[C@H]3C#N)c3ccc(C)cc3n2)CC1` [Example 460, 4-[(S)-4-Carboxy-2-({4-[2-((S)-2-cyano-pyrrolidin-1-yl)-2-oxo-ethoxy]-7-methyl-quinoline-2-carbonyl}-amino)-butyryl]-piperazine-1-carboxylic acid butyl ester]: the IC50 amounted to 0.073 µM.
Still for that read-out and setting: under `CCCCOC(=O)N1CCN(C(=O)[C@H](CCC(=O)O)NC(=O)c2cc(OCC(=O)N3CC(O)C3)c3ccc(C)cc3n2)CC1` [Example 472, 4-[(S)-4-Carboxy-2-({4-[2-(3-hydroxy-azetidin-1-yl)-2-oxo-ethoxy]-7-methyl-quinoline-2-carbonyl}-amino)-butyryl]-piperazine-1-carboxylic acid butyl ester] stands 0.065 µM.

In the next test the target is human P2Y12 receptor (Homo sapiens (Human), UniProt Q9H244). As to the kind of experiment: Human P2Y12 recombinant cell membrane binding assay with 33P 2MeS-ADP. Particulars: CHO cell membranes with recombinant human P2Y12; competition against 33P 2MeS-ADP. The protocol: The ability of the compounds of the formula I to inhibit the P2Y12 receptor can be assessed by determining the concentration of the compound of the formula I that binds to the human P2Y12 Recombinant Cell Membrane Binding Assay with 33P 2MeS-ADP.
human P2Y12 receptor, sequence (Q9H244 whole entry): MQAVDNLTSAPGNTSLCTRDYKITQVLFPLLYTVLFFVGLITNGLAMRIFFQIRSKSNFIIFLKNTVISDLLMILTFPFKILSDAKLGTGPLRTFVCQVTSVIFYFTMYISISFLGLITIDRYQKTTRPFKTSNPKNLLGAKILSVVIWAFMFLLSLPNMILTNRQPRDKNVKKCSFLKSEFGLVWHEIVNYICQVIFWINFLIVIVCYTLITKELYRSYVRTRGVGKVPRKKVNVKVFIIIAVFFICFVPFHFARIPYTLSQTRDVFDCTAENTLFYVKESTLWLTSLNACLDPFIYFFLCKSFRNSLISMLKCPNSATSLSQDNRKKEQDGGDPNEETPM
Human P2Y12 Recombinant Cell Membrane Binding Assay
The ability of a test compound to bind to the P2Y12 receptor was evaluated in a recombinant cell membrane binding assay. In this competitive binding assay, the test compound competed against a radiolabeled agonist for binding to the P2Y12 receptor, expressed on the cell membrane. Inhibition of binding of the labeled material was measured and correlated to the amount and potency of the test compound.
As source of P2Y12, a membrane preparation was prepared from Chinese Hamster Ovary (CHO) cells with recombinant expression of the human P2Y12 receptor according to standard procedures.
Next, wells were washed four times with 400 μl/well of stop buffer on a plate vacuum. The plate was disassembled and allowed to air dry overnight with the filter side up over night. […] The top of the filter plate was sealed with plastic plate covers. The sealed filter plate were incubated 2 hours at RT. A Microbeta Scintillation Counter was used to measure counts.
Compounds were diluted as 10 mM DMSO stocks and tested in a four-point, five-fold dilution series run in triplicate beginning at 10 μM, final concentration. Data were analyzed using a four-parameter curve fit with a fixed minimum and maximum experimentally defined as the average positive and negative controls on each plate.
`CCOC(=O)N1CCN(C(=O)[C@H](CCC(=O)O)NC(=O)c2cc(OCC(=O)N3CCC[C@H]3C(=O)NC3CCC3)c3cc(F)c(F)cc3n2)CC1` [Example 196, 4-[(S)-4-Carboxy-2-({4-[2-((S)-2-cyclobutylcarbamoyl-pyrrolidin-1-yl)-2-oxo-ethoxy]-6,7-difluoro-quinoline-2-carbonyl}-amino)-butyryl]-piperazine-1-carboxylic acid ethyl ester]: the half-inhibitory concentration (IC50) came out at 0.065 µM.
Same read-out and setting: under `CCOC(=O)N1CCN(C(=O)[C@H](CCC(=O)OCC2CCCC2)NC(=O)c2cc(OCC(=O)N3CCC[C@H]3C(=O)NC3CCC3)c3ccc(C)cc3n2)CC1` [Example 246, 4-[(S)-2-({4-[2-((S)-2-Cyclobutylcarbamoyl-pyrrolidin-1-yl)-2-oxo-ethoxy]-7-methyl-quinoline-2-carbonyl}-amino)-4-cyclopentylmethoxycarbonyl-butyryl]-piperazine-1-carboxylic acid ethyl ester] stands 0.071 µM.
Still for that read-out and setting: under `CCOC(=O)N1CCN(C(=O)[C@H](CC(=O)O)NC(=O)c2cc(OCC(=O)N3CCC[C@H]3C(=O)NC3CCC3)c3cc(F)c(C)cc3n2)CC1` [Example 270, 4-[(S)-3-Carboxy-2-({4-[2-((S)-2-cyclobutylcarbamoyl-pyrrolidin-1-yl)-2-oxo-ethoxy]-6-fluoro-7-methyl-quinoline-2-carbonyl}-amino)-propionyl]-piperazine-1-carboxylic acid ethyl ester] stands 0.009 µM.
Turning to `CCOC(=O)N1CCN(C(=O)[C@H](CCC(=O)O)NC(=O)c2cc(O[C@H](C)C(=O)N3CCC[C@H]3C(=O)N3CCCCC3)c3ccc(C)cc3n2)CC1` [Example 296, 4-{(S)-4-Carboxy-2-[(7-methyl-4-{(R)-1-methyl-2-oxo-2-[(S)-2-(piperidine-1-carbonyl)-pyrrolidin-1-yl]-ethoxy}-quinoline-2-carbonyl)-amino]-butyryl}-piperazine-1-carboxylic acid ethyl ester], the IC50 was 0.012 µM.
`CCOC(=O)N1CCN(C(=O)[C@H](CCC(=O)O)NC(=O)c2cc(O[C@H](C)C(=O)N3CCC[C@H]3C(=O)NCC3CC3)c3ccc(C)cc3n2)CC1` [Example 300, 4-{(S)-4-Carboxy-2-[(4-{(R)-2-[(S)-2-(cyclopropylmethyl-carbamoyl)-pyrrolidin-1-yl]-1-methyl-2-oxo-ethoxy}-7-methyl-quinoline-2-carbonyl)-amino]-butyryl}-piperazine-1-carboxylic acid ethyl ester]: the IC50 worked out at 0.005 µM.
Still for that read-out and setting: for `CCOC(=O)N1CCN(C(=O)[C@H](CCC(=O)O)NC(=O)c2cc(OCC(=O)N3CCCC3c3ccccc3)c3ccccc3n2)CC1` (stereo partly drawn) [Example 334, 4-[(S)-4-Carboxy-2-({4-[2-oxo-2-(2-phenyl-pyrrolidin-1-yl)-ethoxy]-quinoline-2-carbonyl}-amino)-butyryl]-piperazine-1-carboxylic acid ethyl ester] the value was 0.102 µM; for `CCCCOC(=O)N1CC(NC(=O)[C@H](CCC(=O)O)NC(=O)c2cc(OCC(=O)N3CCC[C@H]3C(=O)NC3CCC3)c3ccccc3n2)C1` [Example 424, 3-[(S)-4-Carboxy-2-({4-[2-((S)-2-cyclobutylcarbamoyl-pyrrolidin-1-yl)-2-oxo-ethoxy]-quinoline-2-carbonyl}-amino)-butyrylamino]-azetidine-1-carboxylic acid butyl ester], 0.033 µM.
The same measure, in the same setting: under `CCCCOC(=O)N1CCN(C(=O)[C@H](CCC(=O)O)NC(=O)c2cc(OCC(=O)N3CCC[C@H]3C(=O)NC3CCC3)c3ccc(C)cc3c2)CC1` [Example 511, 4-[(S)-4-Carboxy-2-({4-[2-((S)-2-cyclobutylcarbamoyl-pyrrolidin-1-yl)-2-oxo-ethoxy]-7-methyl-naphthalene-2-carbonyl}-amino)-butyryl]-piperazine-1-carboxylic acid butyl ester] stands 0.021 µM; under `CCCCOC(=O)N1CCN(C(=O)CNC(=O)c2cc(OCC(=O)N3CCC[C@H]3C(=O)NC3CCC3)c3ccccc3n2)CC1` [Example 673, 4-[2-({4-[2-((S)-2-Cyclobutylcarbamoyl-pyrrolidin-1-yl)-2-oxo-ethoxy]-quinoline-2-carbonyl}-amino)-acetyl]-piperazine-1-carboxylic acid butyl ester], 0.005 µM; under `Cc1ccc2c(OCC(=O)N3CCC[C@H]3C(=O)NC3CCC3)cc(C(=O)NCC(=O)N3CCN(C(=O)OCCC(F)(F)F)CC3)nc2c1` [Example 679, 4-[2-({4-[2-((S)-2-Cyclobutylcarbamoyl-pyrrolidin-1-yl)-2-oxo-ethoxy]-7-methyl-quinoline-2-carbonyl}-amino)-acetyl]-piperazine-1-carboxylic acid 3,3,3-trifluoro-propyl ester], 0.003 µM.

Source of the values: patent publication US8669266B2, “Quinoline-carboxamide derivatives as P2Y12 antagonists” (Sanofi, priority 2007, dated 2014).
